The values below come from US4182760A, “Benzophenone anti-oximes, diazepin-N-oxides, and their use as pharmaceutical agents and as intermediates for pharmaceutical agents” (E. I. Du Pont de Nemours and Company, priority 1977, dated 1980).

Bounds are passed on as bounds.

Assay [1] relates to lift reflex. As to the kind of experiment: Prehensile traction test, lift reflex. The assay is classed as in vivo. To be noted: loss of lift reflex; for ED50: mouse, read-out: Mouse ED50, Prehensile Reflexes, Lift. The source says:
(§1) Standard procedures for detecting and comparing the tranquilizer, muscle-relaxant, and sedative activity of compounds in this series for which there is a correlation with human efficacy are the following: pinna reflex tests, […] reflex tests, a muscle relaxant (anti-Straub tail) test, an antipentylenetetrazole test, and a mouse activity supression test (MAST).
(§2) The mouse is gently swung by the tail toward a horizontal 12 gauge wire tautly stretched 25 cm above the bench. After the mouse grasps the wire with its forepaws, its posterior end is held directly below the wire. A normal mouse grasps the wire with its forepaws and immediately lifts its hind limbs to the wire. Failure to grasp the wire with the forepaws in one of 2 trials constitutes loss of the grip reflex; failure to lift the hind limbs to grasps the wire with at least one hind paw within 5 seconds constitutes loss of the lift reflex.
(§3) Potency in the antipentylenetetrazole (PTZ) and the MAST indicates a potent antianxiety agent. Great potency for blockade of the mouse auditory pinna reflex with little or no effect on tactile pinna reflex is characteristic of minor tranquilizers. Centrally acting skeletal muscle relaxants profoundly affect the lift reflex with little effect on the grip reflex.
(§4) The following table includes the results of these tests conducted with the compounds of this invention; it also includes the results for diazepam and chlordiazepoxide, two well-known benzodiazepines widely-used commercially as tranquilizers.

In assay [2] the test system is shock-induced suppression of exploratory locomotor behavior. As to the kind of experiment: Mouse activity suppression test (MAST). In kind it is in vivo. The note with it: fasted female white mice, dosed orally, 0.2 ma shock for 2.0 seconds per crossing; for ED20: Mus musculus, po.
Text: (§5) Standard procedures for detecting and comparing the tranquilizer, muscle-relaxant, and sedative activity of compounds in this series for which there is a correlation with human efficacy are the following: pinna reflex tests, prehensile traction reflex tests, a muscle relaxant (anti-Straub tail) test, an antipentylenetetrazole test, and a mouse activity supression test (MAST).
MOUSE ACTIVITY S[…] (MAST)
The mouse activity s[…] (MAST) is a model system designed to detect compounds with possible antianxiety activity in humans. […] The punishment, an electric shock applied through the mouse's paws, quickly extinguishes normal behavior.
The test procedure is modified from Boissier, et al., European J. Pharm., 4, 145-151 (1968). Female white mice, fasted 16-22 hours, are randomly distributed to fiberglass holding boxes. Mice in groups of 10-20 are dosed orally and returned to their holding boxes until test time. Test drug suspensions or solutions are prepared by sonication in 1% Methocel®. Typical dose ranges include 0.5, 1, 2, and 4 mg/kg of 1, 3, 9, 27, 81 mg/kg plus a vehicle control and are selected to include one dose at which an effect such as sedation, stimulation, muscle weakness or analgesia was seen.
The test apparatus is an opaque, black plastic box with a clear lid and a stainless steel grid floor. The floor of the test box is marked off into four squares of equal size.
After dosing, a mouse is gently placed in one corner of the testing box and during the next minute each time the mouse makes a full crossing from one square section of the box to another the floor is electrified with 0.2 ma current for 2.0 seconds.
The number of shocks received by each mouse is recorded and the mean number of shocks/dose (X) is determined. When X drug at any dose is statistically greater than X controls (Kruskal-Wallis test in S. Siegel^1), antagonism of suppression obtains and the drug is presumed to have antianxiety activity.
^1 S. Siegel: Non-parametric Statistics for Behavioral Sciences, pp. 184-194, McGraw-Hill (1956).
as §3, §4

The test system of assay [3] is auditory pinna reflex. The assay can be described thus: Auditory Pinna Reflex test (loss of auditory pinna reflex). In kind it is in vivo, mouse. The note with it: fasted female white mice, intubated (oral), tested at 0.5, 2, 5 and 24 hours; for ED50: Mus musculus, read-out: Mouse ED50, Pinna Reflexes, Auditory. The method, then: as §5
(§6) Fasted female white mice, 5 per dose are intubated with drug at 4, 12, 36, 108 and 324 mg/kg in 1% Methocel®-1.25% Tween 80®, at 10 ml/kg. The auditory and tactile pinna are tested at 0.5, 2, 5 and 24 hours.
The mouse is placed on a horizontal bar 9 cm from a Galton whistle adjusted for 13 Kc. Failure to flatten the ears during one or two short bursts of sound constitutes loss of auditory pinna reflex.
as §3, §4

Assay [4] has as its system morphine-induced Straub tail. The assay can be described thus: Muscle relaxant (anti-Straub tail) test. To be noted: fasted female white mice, intubated (oral), morphine sulfate 53.7 mg/kg s.c. at 25 min, observed 30 min after test drug; for ED50: Mus musculus, 0.5 h. In kind it is in vivo, mouse.
Text: as §5
MUSCLE RELAXANT (ANTI-STRAUB TAIL) TEST
Fasted female white mice, 5 per dose are intubated with test drug. Twenty-five minutes later morphine sulfate is given subcutaneously at 53.7 mg/kg. Thirty minutes after test drug the mice are observed for presence of Straub tail. Quantal ED50 values for blockade of morphine-induced Straub tail are calculated.
as §3, §4

Assay [5] concerns tactile pinna reflex. The assay can be described thus: Tactile Pinna Reflex test (loss of tactile pinna reflex). In kind it is in vivo, mouse. To be noted: fasted female white mice, intubated (oral), tested at 0.5, 2, 5 and 24 hours; for ED50: Mus musculus, read-out: Mouse ED50, Pinna Reflexes, Tactile. The method, then:
as §5, §6
The mouse is held by the tail and the hairs inside the right ear are touched by the fine wire stylus from a 27 gauge needle. Failure of the mouse to twitch or move the head constitutes loss of the tactile pinna reflex.
as §3, §4

Assay [6] has as its system grip reflex. As to the kind of experiment: Prehensile traction test, grip reflex. The assay is classed as in vivo. To be noted: loss of grip reflex; for ED50: mouse, read-out: Mouse ED50, Prehensile Reflexes, Grip.
Text: as §1, §2, §3, §4

The subject of assay [7] is pentylenetetrazole (PTZ) clonic convulsions. The assay can be described thus: Antipentylenetetrazole (PTZ) test. In kind it is in vivo, mouse. To be noted: fasted female white mice, intubated (oral), PTZ 40 mg/kg i.v. 30 min later; for ED50: Mus musculus, 0.5 h.
Text: as §5
ANTIPENTYLENETETRAZOLE (PTZ) TEST
Fasted female white mice, 10 per dose are intubated with drug in vehicle as above at doses such as 0, 1, 3, 9, 27 and 81 mg/kg. Thirty minutes later the mice are dosed intravenously with PTZ (Metrazol®^1) at 40 mg/kg (ED98 for clonic convulsions). Dosed animals which remain on a 4"×4" platform for 20 seconds are considered protected. Quantal ED50's are calculated by the moving average method.
^1 Original brand of pentylenetetrazole; sterile 10% aqueous solution for parenteral injection, Knoll Pharmaceutical Company.
as §3, §4

“5-Chloro-2-(N-methyl-N-chlorofluoroacetamido)benzophenone anti-Oxime [(I)]”: the “Mouse ED50, Prehensile Reflexes, Lift” value in assay [1] came out at 36. The “Mast ED20%” value in assay [2] is on record as 3.5. For the same compound, the “Mouse ED50, Pinna Reflexes, Auditory” value in assay [3] is given as 23. The “Mouse ED50, Muscle Relaxant” value in assay [4] was determined as 5.8. Further, the “Mouse ED50, Pinna Reflexes, Tactile” value in assay [5] turned out to be 360. Further, in assay [6], the “Mouse ED50, Prehensile Reflexes, Grip” value is given as 70. In addition, the “Mouse ED50, PTZ” value in assay [7] is 4.5.

On to `CN1C(=O)C(F)[N+]([O-])=C(c2ccccc2)c2cc(Cl)ccc21` (stereo not shown) [(II), 7-Chloro-3-fluoro-1,3-dihydro-1-methyl-5-phenyl-2H-1,4-benzodiazepin-2-one 4-Oxide], for which the ED50 in assay [1] is 62 mg/kg; in assay [3], 62 mg/kg; in assay [4], 1.7 mg/kg; in assay [5] it was more than 450 mg/kg; in assay [6], more than 450 mg/kg; in assay [7], 3.9 mg/kg. Also, in assay [2], the ED20 stood at 0.35 mg/kg.

On to `CNC1=Nc2ccc(Cl)cc2C(c2ccccc2)=[N+]([O-])C1` [Chlordiazepoxide], for which the ED50 in assay [1] is 11 mg/kg; in assay [3] it was 17 mg/kg; in assay [4], 1.9 mg/kg; in assay [5], 209 mg/kg; in assay [6], 232 mg/kg; in assay [7] it was 4.5 mg/kg. In assay [2], this compound returned an ED20 of 1.9 mg/kg.

`CN1C(=O)CN=C(c2ccccc2)c2cc(Cl)ccc21` [Diazepam]: the 50% effective dose (ED50) was found to be 6 mg/kg in assay [1]; 4 mg/kg in assay [3]; 0.25 mg/kg in assay [4]; 109 mg/kg in assay [5]; 97 mg/kg in assay [6]; 1.3 mg/kg in assay [7]. Besides, in assay [2], the ED20 amounted to 0.45 mg/kg.

A word on the ED50: it is the dose at which the effect has come halfway, by size or by number of responders.
